Assay results as given in US20110230472A1, “RING-FUSED AZOLE DERIVATIVE HAVING PI3K-INHIBITING ACTIVITY” (Shionogi & Co., Ltd., priority 2008, published 2011).

Tests used:
PI-3 kinase γ [1] = biological target: T1, PI-3 kinase γ (Homo sapiens, UniProt P48736); test: PI3Kγ inhibitory activity, PI3-kinase HTRF assay (inhibition ratio); type: biochemical; conditions: 0.5 h; for inhibition at 50 µM: compound at 50 μM
Method in brief: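 PI3Kγ preincubated 10 min with compound and PIP2 substrate (MgCl2, DTT), then ATP added for 30 min at room temperature. PIP3 detected by HTRF (665/620 nm ratio) after 18 h. Inhibition ratio at 50 or 10 μmol/L, normalised to no-compound and no-enzyme controls.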

[2] = tested on: Salmonella typhimurium TA98 line, TA100 line; test: FAT test (mutagenicity); set-up: key: When the mutagenicity is negative, the compound is shown as (−); When positive, the compound is shown as (+); conditions: TA98 and TA100 lines; non-metabolism-activation and metabolism-activation conditions
Method: 20 μL of Salmonella enterica subsp. typhimurium (Salmonella typhimurium TA98 line, TA100 line) cryopreserved was inoculated to 10 mL of liquid nutrient medium (2.5% Oxoid nutrient broth No. 2) and then precultured at 37° C. for 10 hours with shaking. Regarding TA98 line, after 9 mL of a bacterial suspension was centrifuged (2000×g, 10 minutes) to remove the culture solution, the bacteria was suspended in 9 mL of Micro F buffer solution (K2HPO4: 3.5 g/L, KH2PO4: 1 g/L, (NH4)2SO4: 1 g/L, tri-sodium citric acid dihydrate: 0.25 g/L, MgSO4.7H2O: 0.1 g/L), and then added to 110 mL of Exposure media (Micro F buffer solution containing biotin: 8 μg/mL, histidine: 0.2 μg/mL, glucose: 8 mg/mL). Regarding TA 100 line, 120 mL of Exposure media was added to 3.16 mL of the bacterial suspension to prepare a test bacterial suspension. 12 μL of a solution of a test substance in DMSO (diluted eight times in a common ratio of 2 from the maximum dose of 50 mg/mL); 12 μL of DMSO as a negative control; 50 μg/mL 4-nitroquinoline-1-oxide solution in DMSO for TA98 line or 0.25 μg/mL 2-(2-furyl)-3-(5-nitro-2-furyl)acrylamide solution in DMSO as a positive control for TA 100 line in the case of a non-metabolism-activation condition; 12 μL of 40 μg/mL 2-aminoanthracene solution in DMSO for TA98 line or 20 μg/mL of 2-aminoanthracene solution in DMSO for TA100 line in the case of a metabolism-activation condition; were each mixed with 588 μL of the test bacterial suspension (in the case of a metabolism activation condition, a mixed solution of 498 μL of the test bacterial suspension and 90 μL S9 mix) and then cultured at 37° C. at 90 minutes with shaking. 460 μL of the bacterial suspension to which a test substance was exposed was mixed with 230 μL of Indicator media (a Micro F buffer solution containing 8 μg/mL biotin, 0.2 μg/mL histidine, 8 mg/mL glucose, and 37.5 μg/mL bromocresol purple). 50 μL thereof was dispensed to microplate 48 wells/dose and then statically cultured at 37° C. for 3 days. In a well containing bacteria which obtained proliferation potency by mutation of the amino acid (histidine) synthetase gene, the change of pH caused the color change from purple to yellow. Thus, in 48 wells per dose, the number of the bacteria-proliferation wells in which the color changed to yellow was counted, compared with a group of negative controls, and then evaluated. When the mutagenicity is negative, the compound is shown as (−). When positive, the compound is shown as (+).

CYP2C9 = biological target: T2, CYP2C9 (Homo sapiens, UniProt P11712); test: CYP inhibition test, pooled human liver microsome, CYP2C9; type: in vitro ADME; conditions: methyl-hydroxylation of tolbutamide
T2 construct: enzyme: pooled human liver microsome 0.2 mg protein/mL; from tissue; host or cells: pooled human liver microsome
Excerpt: (§1) O-de-ethylation of 7-ethoxyresorufin (CYP1A2), methyl-hydroxylation of tolbutamide (CYP2C9), 4′-hydroxylation of mephenyloin (CYP2C19), O-demethylation of dextromethorphan (CYP2D6), and hydroxylation of terfenadine (CYP3A4), which are typical substrate for metabolic reactions of human main CYP5 molecular species (CYP1A2, 2C9, 2C19, 2D6, and 3A4), were adopted as indexes.
(§2) The reaction conditions are as follows: substrate: 0.5 μmol/L of ethoxyresorufin (CYP1A2), 100 μmol/L of tolbutamide (CYP2C9), […] of S-mephenyloin (CYP2C19), 5 μmol/L of dextromethorphan (CYP2D6), and 1 μmol/L of terfenadine (CYP3A4); reaction time; 15 minutes; reaction temperature: 37° C.; enzyme: pooled human liver microsome 0.2 mg protein/mL; test drug concentration: 1, 5, 10, and 20 μmol/L (4 points).
(§3) In a 96-well plate, as a reaction solution, five kinds of substrates, a human liver microsome, and a test drug were added to 50 mmol/L Hepes buffer solution in the aforementioned ratio. A coenzyme NADPH was added to start a metabolic reaction, which is an index. After reacting at 37° C. for 15 minutes, a solution of methanol/acetonitrile (1/1 (v/v)) was added to quench the reaction. After centrifugation at 3000 rpm for 15 minutes, resorufin (CYP1A2 metabolite) in the supernatant was quantitated with a fluorescence multilabel counter, and hydroxylated tolbutamide (CYP2C9 metabolite), 4′-hydroxylated mephenyloin (CYP2C19 metabolite), […], terfenadine in alcohol form (CYP3A4 metabolite) were quantitated with LC/MS/MS.
(§4) The case wherein only DMSO (a solvent which dissolved a drug) was added to a reaction system was defined as a control (100%). When a test drug solution was added, the remaining activity (%) at each concentration was calculated, and then IC50 was calculated with a concentration and an inhibition ratio by an inverse estimation using a logistic model.

CYP2D6 = biological target: T3, CYP2D6 (Homo sapiens, UniProt P10635); test: CYP inhibition test, pooled human liver microsome, CYP2D6; type: in vitro ADME; conditions: O-demethylation of dextromethorphan
T3 construct: enzyme: pooled human liver microsome 0.2 mg protein/mL; from tissue; host or cells: pooled human liver microsome
Excerpt: as §1, §2, §3, §4

Solubility test = type: physicochemical; conditions: kinetic from dmso stock; artificial intestinal juice pH 6.8, 1% DMSO, 25° C. for 16 hours
Method in brief: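 Kinetic solubility with 1% DMSO: compound from 10 mmol/L DMSO stock spiked into pH 6.8 phosphate artificial intestinal juice, held 16 h at 25 °C, then suction-filtered. Filtrate diluted twofold in methanol/water (1/1) and quantified by HPLC or LC/MS/MS via absolute calibration.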

CYP2C19 = biological target: T4, CYP2C19 (Homo sapiens, UniProt P33261); test: CYP inhibition test, pooled human liver microsome, CYP2C19; type: in vitro ADME; conditions: 4′-hydroxylation of mephenyloin
T4 construct: enzyme: pooled human liver microsome 0.2 mg protein/mL; from tissue; host or cells: pooled human liver microsome
Excerpt: as §1, §2, §3, §4

CYP1A2 = biological target: T5, CYP1A2 (Homo sapiens, UniProt P05177); test: CYP inhibition test, pooled human liver microsome, CYP1A2; type: in vitro ADME; conditions: O-de-ethylation of 7-ethoxyresorufin
T5 construct: enzyme: pooled human liver microsome 0.2 mg protein/mL; from tissue; host or cells: pooled human liver microsome
T5 sequence (P05177 1-516): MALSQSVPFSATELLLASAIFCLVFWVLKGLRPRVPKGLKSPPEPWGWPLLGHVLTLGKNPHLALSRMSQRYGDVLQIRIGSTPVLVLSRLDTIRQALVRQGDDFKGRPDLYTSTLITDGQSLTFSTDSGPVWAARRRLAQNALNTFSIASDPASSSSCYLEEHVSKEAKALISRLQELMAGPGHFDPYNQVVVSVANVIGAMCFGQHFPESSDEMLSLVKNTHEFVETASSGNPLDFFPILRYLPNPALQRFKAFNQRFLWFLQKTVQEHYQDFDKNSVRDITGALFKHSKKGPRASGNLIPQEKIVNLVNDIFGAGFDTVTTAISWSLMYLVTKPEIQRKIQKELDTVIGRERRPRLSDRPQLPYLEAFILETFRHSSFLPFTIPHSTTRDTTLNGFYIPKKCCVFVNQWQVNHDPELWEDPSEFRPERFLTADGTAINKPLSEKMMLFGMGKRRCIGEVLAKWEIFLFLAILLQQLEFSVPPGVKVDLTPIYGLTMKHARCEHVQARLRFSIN
Excerpt: as §1, §2, §3, §4

[3] = biological target: T6, human ether-a-go-go related gene (hERG) channel (Homo sapiens, UniProt Q12809); test: hERG test, whole-cell patch-clamp; type: cell-based; conditions: HEK293 cell expressing hERG; applied for 10 minutes; concentration not given
T6 construct: expressed in transfected cells; host or cells: HEK293
Excerpt: For the purpose of risk evaluation of QT interval extension of electrocardiogram, the activity on delayed rectification K^+ current (IKr), which plays an important role in a cardiac ventricle repolarization process, was examined using the HEK293 cell that was made to express human ether-a-go-go related gene (hERG) channel.
Using an automatic patch-clamp system (PatchXpress 7000A, Axon Instruments Inc.), by a whole-cell patch-clamp method, after the cell was maintained at a membrane potential of −80 mV, IKr induced upon applying depolarizing stimulation of +50 mV for 2 seconds and further applying repolarizing stimulation of −50 mV for 2 seconds was recorded. After generated electric current became stable, a test substance dissolved at an intended concentration in extracellular fluid (137 mmol/L NaCl, 4 mmol/L KCl, 1.8 mmol/L CaCl2.2H2O, 1 mmol/L MgCl2.6H2O, 10 mmol/L glucose, 10 mmol/L HEPES (4-(2-hydroxyethyl)-1-piperazineethanesulfonic acid), pH=7.4) was applied to the cell for 10 minutes under room temperature condition. From the obtained IKr, the absolute value of the maximum tail current was measured using analysis software (DataXpress ver. 1, Molecular Devices Corporation) and the value of the electric current in a maintained membrane potential as baseline. Moreover, an inhibition ratio for the maximum tail current prior to the application of the test substance was calculated and then compared with a group of media-application (0.1% dimethylsulfoxide solution) to evaluate influence of the test substance on IKr.

CYP3A4 = biological target: T7, CYP3A4 (Homo sapiens, UniProt P08684); test: CYP inhibition test, pooled human liver microsome, CYP3A4; type: in vitro ADME; conditions: hydroxylation of terfenadine
T7 construct: enzyme: pooled human liver microsome 0.2 mg protein/mL; from tissue; host or cells: pooled human liver microsome
Excerpt: as §1, §2, §3, §4

Metabolic stability test = type: in vitro ADME; conditions: human liver microsome 0.5 mg protein/mL, 1 mmol/L NADPH, 37° C.
Method: After a subject compound was reacted for a certain time using a pooled human liver microsome commercially available, a reacted sample and an unreacted sample are compared to calculate a survival ratio, and then the degree of metabolism in the liver was evaluated.
0.2 mL of a buffer solution (50 mmol/L of Tris-HCl in pH 7.4, 150 mmol/L of potassium chloride, and 10 mmol/L of magnesium chloride) containing a human liver microsome of 0.5 mg protein/mL was reacted in the presence of 1 mmol/L NADPH at 37° C. for 0 or 30 minutes (oxidative reaction). After reacting, 50 μL of the reaction solution was added to 100 μL of a solution of methanol/acetonitrile (1/1 (v/v)), mixed, and then centrifuged at 3000 rpm for 15 minutes. The test compound in the supernatant was quantitated with LC/MS/MS. The amount of the compound at a reaction time of 0 minute was defined as 100% and, based on that, the percentage of the test compound remained after reacting for 30 minutes was calculated.

PI-3 kinase γ [4] = biological target: T1, PI-3 kinase γ; test: PI3Kγ inhibitory activity (Ki value), HTRF; type: biochemical; conditions: Ki=IC50/(1+10 μM ATP/Km)
Method: The PI3Kγ inhibitory activity (Ki value) of a compound was evaluated according to the following procedure:
5 μL of a compound solution containing 10% DMSO and 200 μmol/L of a compound was changed to 5 μL of a compound solution containing 10% DMSO and either 200, 64, 20, 6.4, 2, 0.64, or 0.20 μmol/L of the compound (optionally, this is diluted to a lower concentration). Using a method similar to the method for measuring PI3Kγ inhibitory activity, inhibition ratios were measured in the presence of the compound at 50, 16, 5, 1.6, 0.5, 0.16, and 0.05 μmol/L (optionally, a lower concentration). Then an IC50 value was calculated by a logistic approximation method or the linear regression method using two concentrations that across 50% inhibition. Separately, the ATP concentration in the reaction solution (40 μmol/L ATP, 10 mmol/L MgCl2, 5 mmol/L DTT) at the time of the start of a reaction in the absence of the compound was changed to 80, 40, 20, 10, 5, 2.5, 1.25, or 0.625 μmol/L. Then, HTRF ratios were measured by a similar method. The value obtained by subtracting the HTRF ratio at each ATP concentration from the HTRF ratio in the absence of PI-3 kinase γ was defined as the value obtained by multiplying reaction rate (v) at each ATP concentration with a constant. The Michaelis-Menten constant Km was then calculated by the Lineweaver-Burk plot method. The Ki value of a compound was calculated by the following formula.
Ki=IC50 value/(1+10 μM (test ATP concentration)/Km (μM))
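Throughout, for percentage of the test compound remained after reacting for 30 minutes: 100% equals the compound amount at 0 min reaction.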

T1 sequence (P48736 whole entry): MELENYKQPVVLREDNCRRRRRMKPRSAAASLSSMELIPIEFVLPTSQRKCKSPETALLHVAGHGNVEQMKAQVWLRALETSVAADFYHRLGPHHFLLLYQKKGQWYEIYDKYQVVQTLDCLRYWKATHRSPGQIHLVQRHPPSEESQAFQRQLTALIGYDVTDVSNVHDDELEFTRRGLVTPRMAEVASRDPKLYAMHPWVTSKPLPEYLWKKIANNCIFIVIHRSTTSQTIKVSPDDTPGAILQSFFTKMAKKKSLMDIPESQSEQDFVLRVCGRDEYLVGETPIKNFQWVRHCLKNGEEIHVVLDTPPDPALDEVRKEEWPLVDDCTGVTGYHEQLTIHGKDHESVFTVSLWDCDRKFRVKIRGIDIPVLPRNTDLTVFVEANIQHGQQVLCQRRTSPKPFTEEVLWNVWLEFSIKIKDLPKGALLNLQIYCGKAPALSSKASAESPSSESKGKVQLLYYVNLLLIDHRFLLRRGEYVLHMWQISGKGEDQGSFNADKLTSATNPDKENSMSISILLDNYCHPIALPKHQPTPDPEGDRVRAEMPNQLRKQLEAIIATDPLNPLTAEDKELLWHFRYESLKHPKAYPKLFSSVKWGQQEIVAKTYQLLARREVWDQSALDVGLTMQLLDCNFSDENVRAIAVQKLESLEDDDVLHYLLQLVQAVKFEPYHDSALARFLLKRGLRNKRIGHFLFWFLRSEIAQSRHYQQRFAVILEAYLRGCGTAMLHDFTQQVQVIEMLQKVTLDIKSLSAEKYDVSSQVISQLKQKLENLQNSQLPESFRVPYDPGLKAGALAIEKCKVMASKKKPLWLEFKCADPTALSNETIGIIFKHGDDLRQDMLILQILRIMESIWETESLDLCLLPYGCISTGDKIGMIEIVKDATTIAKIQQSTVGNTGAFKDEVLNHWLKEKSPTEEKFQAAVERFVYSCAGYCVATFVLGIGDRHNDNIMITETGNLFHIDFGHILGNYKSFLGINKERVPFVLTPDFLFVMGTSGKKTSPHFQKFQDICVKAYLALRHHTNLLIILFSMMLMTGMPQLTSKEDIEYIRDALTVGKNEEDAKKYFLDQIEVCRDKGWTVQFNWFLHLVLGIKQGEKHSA
T6 sequence (Q12809 whole entry): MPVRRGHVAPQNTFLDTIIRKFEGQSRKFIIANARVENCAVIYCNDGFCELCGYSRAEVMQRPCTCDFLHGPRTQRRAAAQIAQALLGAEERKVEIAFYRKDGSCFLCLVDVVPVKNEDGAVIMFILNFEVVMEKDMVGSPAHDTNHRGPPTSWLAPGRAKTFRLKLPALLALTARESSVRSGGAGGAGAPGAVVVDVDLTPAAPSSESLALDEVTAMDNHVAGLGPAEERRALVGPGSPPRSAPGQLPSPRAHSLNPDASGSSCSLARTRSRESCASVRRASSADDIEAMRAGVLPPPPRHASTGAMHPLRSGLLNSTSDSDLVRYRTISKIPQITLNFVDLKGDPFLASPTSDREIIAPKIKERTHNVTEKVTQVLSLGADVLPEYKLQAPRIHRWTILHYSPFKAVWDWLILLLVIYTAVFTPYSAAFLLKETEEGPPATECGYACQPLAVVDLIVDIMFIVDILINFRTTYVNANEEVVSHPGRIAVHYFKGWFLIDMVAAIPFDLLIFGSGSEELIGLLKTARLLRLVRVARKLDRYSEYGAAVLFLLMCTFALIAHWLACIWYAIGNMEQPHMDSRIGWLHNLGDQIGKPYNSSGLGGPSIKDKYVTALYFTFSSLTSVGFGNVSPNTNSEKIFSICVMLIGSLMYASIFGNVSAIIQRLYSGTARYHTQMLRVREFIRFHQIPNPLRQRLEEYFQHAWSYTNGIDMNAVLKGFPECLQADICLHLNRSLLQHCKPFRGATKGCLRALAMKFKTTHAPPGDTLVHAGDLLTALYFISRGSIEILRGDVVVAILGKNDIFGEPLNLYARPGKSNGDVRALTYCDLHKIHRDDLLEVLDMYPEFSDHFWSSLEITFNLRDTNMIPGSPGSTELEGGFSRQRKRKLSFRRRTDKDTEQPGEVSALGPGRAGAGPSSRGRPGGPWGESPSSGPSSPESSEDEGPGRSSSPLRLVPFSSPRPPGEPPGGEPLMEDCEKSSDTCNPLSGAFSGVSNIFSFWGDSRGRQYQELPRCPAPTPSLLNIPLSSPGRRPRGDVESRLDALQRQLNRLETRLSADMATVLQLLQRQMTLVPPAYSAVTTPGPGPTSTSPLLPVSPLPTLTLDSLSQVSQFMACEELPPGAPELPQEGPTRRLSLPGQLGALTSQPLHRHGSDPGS
T7 sequence (P08684 whole entry): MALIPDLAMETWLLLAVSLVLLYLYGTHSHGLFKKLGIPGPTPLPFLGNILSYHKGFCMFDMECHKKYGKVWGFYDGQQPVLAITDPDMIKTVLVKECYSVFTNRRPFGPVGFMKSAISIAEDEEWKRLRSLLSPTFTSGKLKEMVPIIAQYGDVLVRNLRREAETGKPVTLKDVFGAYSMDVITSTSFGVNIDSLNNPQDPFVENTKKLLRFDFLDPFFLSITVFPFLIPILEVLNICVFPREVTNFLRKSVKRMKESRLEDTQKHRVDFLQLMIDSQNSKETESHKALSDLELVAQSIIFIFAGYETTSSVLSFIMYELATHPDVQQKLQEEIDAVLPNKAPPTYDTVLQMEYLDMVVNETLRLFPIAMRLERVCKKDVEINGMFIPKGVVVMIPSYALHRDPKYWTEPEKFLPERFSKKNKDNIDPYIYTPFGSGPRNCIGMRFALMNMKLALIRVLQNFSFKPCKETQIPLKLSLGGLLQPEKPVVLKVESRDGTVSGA
T3 sequence (P10635 whole entry): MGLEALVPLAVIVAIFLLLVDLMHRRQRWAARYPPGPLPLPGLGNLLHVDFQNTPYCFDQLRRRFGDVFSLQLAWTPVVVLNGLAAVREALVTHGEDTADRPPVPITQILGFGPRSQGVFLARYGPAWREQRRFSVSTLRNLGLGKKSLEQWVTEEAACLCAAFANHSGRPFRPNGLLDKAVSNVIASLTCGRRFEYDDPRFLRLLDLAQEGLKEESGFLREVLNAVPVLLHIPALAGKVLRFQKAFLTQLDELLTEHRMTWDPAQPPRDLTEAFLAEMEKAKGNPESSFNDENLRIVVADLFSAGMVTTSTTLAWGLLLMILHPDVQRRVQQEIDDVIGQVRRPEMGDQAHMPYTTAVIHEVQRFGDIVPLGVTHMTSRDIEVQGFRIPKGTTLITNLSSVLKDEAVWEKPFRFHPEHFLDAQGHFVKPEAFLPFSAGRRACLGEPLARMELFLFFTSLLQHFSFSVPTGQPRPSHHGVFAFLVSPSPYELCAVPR
T2 sequence (P11712 whole entry): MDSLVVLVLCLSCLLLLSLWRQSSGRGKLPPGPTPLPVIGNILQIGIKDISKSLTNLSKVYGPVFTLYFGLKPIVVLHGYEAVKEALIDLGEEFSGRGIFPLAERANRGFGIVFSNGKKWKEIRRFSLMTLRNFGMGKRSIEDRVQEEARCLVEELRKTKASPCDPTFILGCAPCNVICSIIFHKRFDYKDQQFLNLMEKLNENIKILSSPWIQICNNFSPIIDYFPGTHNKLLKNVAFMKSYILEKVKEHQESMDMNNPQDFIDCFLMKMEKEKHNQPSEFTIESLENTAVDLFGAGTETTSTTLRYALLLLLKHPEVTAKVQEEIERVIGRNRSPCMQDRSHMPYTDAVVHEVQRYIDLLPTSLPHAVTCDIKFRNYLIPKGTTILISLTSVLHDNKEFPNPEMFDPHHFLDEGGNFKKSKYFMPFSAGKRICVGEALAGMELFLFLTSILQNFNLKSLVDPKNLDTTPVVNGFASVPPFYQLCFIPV
T4 sequence (P33261 whole entry): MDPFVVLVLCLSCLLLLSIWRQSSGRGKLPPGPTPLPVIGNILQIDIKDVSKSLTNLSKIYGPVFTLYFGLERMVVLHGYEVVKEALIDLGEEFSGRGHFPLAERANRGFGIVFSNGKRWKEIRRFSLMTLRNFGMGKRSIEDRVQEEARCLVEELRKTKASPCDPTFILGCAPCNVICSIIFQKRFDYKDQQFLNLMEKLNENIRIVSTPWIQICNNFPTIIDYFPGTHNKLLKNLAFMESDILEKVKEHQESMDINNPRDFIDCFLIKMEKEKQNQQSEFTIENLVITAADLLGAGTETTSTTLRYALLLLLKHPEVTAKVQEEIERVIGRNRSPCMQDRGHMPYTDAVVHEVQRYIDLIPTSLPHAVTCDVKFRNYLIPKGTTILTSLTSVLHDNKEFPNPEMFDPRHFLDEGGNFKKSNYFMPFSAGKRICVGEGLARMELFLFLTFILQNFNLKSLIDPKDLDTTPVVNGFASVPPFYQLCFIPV

| Compound | inhibition at 50 µM (PI-3 kinase γ [1]; PI3Kγ) [%] | mutagenicity (FAT test) [2] | solubility at 16 h (Solubility test) [µM] | inhibition ratio for the maximum tail current (IKr) [3] [%] | further results |
| --- | --- | --- | --- | --- | --- |
| CNC(=O)Nc1cc2n(n1)CCN2c1cc(Br)cc(C(=O)N2CCCC2)c1 [Compound I-181] | ≥ 95 | (−) |  |  |  |
| CNC(=O)Nc1cc2n(n1)CCN2c1cc(Br)cc(C(=O)N2CCNCC2)c1 [Compound I-185] | ≥ 95 |  | > 50 | 8.3 | IC50 (CYP2C9): > 20 µM; IC50 (CYP2D6): > 20 µM; IC50 (CYP2C19): > 20 µM; IC50 (CYP1A2): > 20 µM; IC50 (CYP3A4): > 20 µM |
| COc1cc(N2CCc3nc(NC(=O)Nc4ccccc4)sc3C2)nc(OC)n1 [Compound I-203] | 95 | (−) |  |  |  |
| CC(=O)Nc1nc2c(s1)CN(c1ccccc1)CC2 [Compound I-230] | 81 |  | > 50 | 9.1 | percentage of the test compound remained after reacting for 30 minutes (Metabolic stability test): 87.9% |
| COc1cc(N2CCc3nc(NC(=O)NCCC(=O)O)sc3C2)nc(OC)n1.Cl.Cl [Compound I-262] |  |  | > 50 | 1.6 | inhibition at 10 µM (PI-3 kinase γ [1]; PI3Kγ, compound at 10 μM): ≥ 95%; percentage of the test compound remained after reacting for 30 minutes (Metabolic stability test): 92.8%; Ki (PI-3 kinase γ [4]): 0.047 µM |
| CNC(=O)Nc1nc2c(s1)CN(c1nc(OC)nc(OC)n1)CC2 [Compound I-327] |  | (−) |  |  | inhibition at 10 µM (PI-3 kinase γ [1]; compound at 10 μmol/L): 84% |
| CC(C)Oc1cc(C(=O)Nc2cc3n(n2)CCN3c2ccc3c(c2)CCN(C)C3=O)on1 [Compound I-403] |  | (−) |  |  | inhibition at 10 µM (PI-3 kinase γ [1]; compound at 10 μmol/L): ≥ 95% |
